pIC50: −log10 of the molar value.

The test concerns the target T1, Enoyl-[acyl-carrier-protein] reductase [NADH] (Mycobacterium tuberculosis, UniProt P9WGR1).
T1 sequence (P9WGR1 whole entry): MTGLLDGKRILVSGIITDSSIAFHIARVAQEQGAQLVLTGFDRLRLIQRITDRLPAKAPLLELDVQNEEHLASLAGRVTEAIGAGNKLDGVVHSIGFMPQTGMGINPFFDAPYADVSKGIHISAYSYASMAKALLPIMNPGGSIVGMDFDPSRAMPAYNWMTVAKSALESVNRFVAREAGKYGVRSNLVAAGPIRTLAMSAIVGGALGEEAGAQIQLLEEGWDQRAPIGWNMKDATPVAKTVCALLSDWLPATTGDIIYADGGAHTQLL
The experiment in a line: Inhibition of Mycobacterium tuberculosis InhA.
What is called pIC50 is the negative decadic logarithm of the IC50, by convention in mol/L. For the molecule `COc1ccc(Cl)cc1NC(=O)c1ccc(Cl)c([N+](=O)[O-])c1`, the pIC50 is 5.39.
Take `COc1cc(Cl)ccc1NC(=O)c1ccc(C)c([N+](=O)[O-])c1`: the pIC50 is 5.30.
On to `COc1ccc(Cl)cc1NC(=O)c1ccc(OC)c([N+](=O)[O-])c1`, for which the pIC50 was 5.30.
To `CCN(CC)c1ccc(/C=C2/N=C(c3ccccc3)OC2=O)cc1` belongs 5.48; to `COc1ccc(C(=O)Nc2cc(Cl)ccc2Cl)cc1[N+](=O)[O-]`, 4.86; to `Cc1ccc(NC(=O)c2sc3ccccc3c2Cl)cc1[N+](=O)[O-]`, 5.67.
With `O=C(Nc1cc(Cl)cc(Cl)c1)c1ccccc1[N+](=O)[O-]`, the pIC50 was 5.21.
To `O=C(Nc1ccc(Cl)c(Cl)c1)c1ccc(Cl)c([N+](=O)[O-])c1` belongs 4.28.
`COc1ccc(/C=C2/SC(N3CCCC3)=NC2=O)cc1OC`: the pIC50 is 5.14.
To `O=C1N=C(Nc2cc(Cl)cc(Cl)c2)S/C1=C/c1ccco1` belongs 4.75; to `CCN(CC)c1ccc(/C=C2/SC(N3CCCCC3)=NC2=O)cc1`, 5.21; to `Cc1ccc(C(=O)Nc2ccc(Cl)cc2Cl)cc1[N+](=O)[O-]`, 5.06.
Then `COc1ccc(/C=C2\SC(N3CCCCCC3)NC2=O)cc1OC` (stereo not given), with 4.96; and `CCOC(=O)C1=C(C)N/C(=C/c2cc(OC)ccc2OC)C1=O`, with 5.44.
Then `COc1ccc(/C=C2/SC(N3CCC(C)CC3)=NC2=O)cc1OC`, with 4.97.
Take `O=C(Nc1ccc(Cl)cc1Cl)c1ccccc1[N+](=O)[O-]`: the pIC50 was 4.70.
Molecule `Cc1ccc(OC(=O)c2ccccc2[N+](=O)[O-])c(Br)c1` gave a pIC50 of 5.02.
To `COc1ccc(OC)c(/C=N/NC2=CS(=O)(=O)c3ccccc32)c1` belongs 5.29; to `O=C(Nc1cc(Cl)ccc1Cl)c1ccc(Cl)c([N+](=O)[O-])c1`, 4.70; to `CCN(CC)c1ccc(NC(=O)c2ccccc2[N+](=O)[O-])cc1`, 5.36.
Consider `Cc1cc(Cl)ccc1OCC(=O)Nc1cccc([N+](=O)[O-])c1C`, for which the pIC50 was 5.46.
`COC(=O)c1c(NC(=O)c2ccccc2[N+](=O)[O-])sc2c1CCC2` showed a pIC50 of 5.74.
Then `O=[N+]([O-])c1cc(/N=C/c2ccc(Cl)cc2Cl)ccc1Cl`, with 5.33.
To `CCOc1ccc(/C=C2/SC(c3ccccc3)=NC2=O)cc1C` belongs 5.00; to `COc1cc(NC(=O)c2ccc(C)cc2[N+](=O)[O-])cc(OC)c1`, 5.87.
`COc1ccc(/C=C2/SC(N3CCCCC3)=NC2=O)cc1OC` had a pIC50 of 4.94.
For `COc1cc(Cl)cc(/C=C2/SC(c3ccccc3)=NC2=O)c1O`, the pIC50 was 4.98.
Then `COc1ccc(C(=O)Nc2cc(Cl)cc(Cl)c2)cc1[N+](=O)[O-]`, with 5.15; and `Cc1ccc(NC(=O)c2ccccc2[N+](=O)[O-])c(C)c1`, with 4.98.
To `O=C(Nc1cc(Cl)c(Cl)cc1Cl)c1ccccc1[N+](=O)[O-]` belongs 4.92.
